Experimental data as given in patent publication US20260257992A1, “AGONISTS OF SMALL HETERODIMER PARTNER FOR CANCER THERAPY” (THE BOARD OF TRUSTEES OF THE UNIVERSITY OF ILLINOIS, priority 2023, published 2026).

Tests used:
4T1 metastatic lesions = test: Outgrowth of established 4T1 lung metastatic lesions (intravenous graft); type: in vivo, mouse; conditions: for Outgrowth of 4T1 metastatic lesions, combined with αPDL1: compound combined with αPDL1; for Outgrowth of established 4T1 metastatic lesions, single agent: lesions established 3 d before treatment
Excerpt: FIG. 3A-3F. DSHN, a tool small molecule agonist of NR0B2 reduces macrophage/dendritic cell induced Treg expansion and tumor growth in murine models. […] (B) Dendritic cells (left-CD11B^+; CD11C^+) and CD4^+ T cells (right) were isolated from MMTV-PyMT tumors by FACS, and treated with vehicle or DSHN for 3d. The resulting frequency of Treg (CD4^+; CD25^+; FoxP3^+) was quantified by flow cytometry (right graph), (N=3-5/group, t test). […] The percentage of divided CD8+ T cells in the second round was quantified. (D) DSHN increases efficacy of αPDL1 therapy on orthotopic E0771 tumors. An optimal number of E0771 cells were grafted into FoxP3-EGFP mice and allowed to grow until tumors reached 100 mm^3. Mice were euthanized on day 19 (waterfall plot, Fisher's exact test). (E) DSHN increases efficacy of αPDL1 therapy on orthotopic 4T1 tumors. 4T1 cells were orthotopically grafted into mice and allowed to establish for 5d prior to treatment start. Mice were euthanized on day 16 (waterfall plot, Fisher's exact test). (F) DSHN reduces metastatic outgrowth of 4T1 tumors and enhances efficacy of αPDL1 compared to placebo (p) (2-way ANOVA followed by Šidák's multiple comparison test for day 16). 4T1 cells were grafted intravenously, and lung metastatic lesions allowed to establish for 3d before treatment commenced. At the end of the study, lungs were removed and imaged ex vivo, quantified data indicated (N=10, 1-way ANOVA followed by Newman-Keuls multiple comparison test). Representative luciferase images shown to the right. * or different letters denote P<0.05 using indicated statistical test.
FIG. 7A-7I. DSHN-OMe reduces tumor and metastatic growth in murine models, in a myeloid cell-NR0B2 dependent manner. (A) E0771 cells were grafted into control mice (NR0B2^+/+; LysMCre^+) or mice where NR0B2 was knocked out in myeloid immune cells (NR0B2^fl/fl; LysMCre^+). 8 days post-graft, daily treatment with placebo or DSHN-OMe was initiated and subsequent tumor growth followed through time. Different letters denote statistical difference on the final measurement (day 21, 2-Way ANOVA followed by Šidák's post-hoc, N=5-8). (B) Waterfall plot illustration of data in (A) showing tumor volume at final day of measurement. Asterisk indicates significant difference (Chi-squared test, P<0.05). (C) Lewis Lung cells were grafted into control mice (NR0B2^+/+; LysMCre^+) or mice where NR0B2 was knocked out in myeloid immune cells (NR0B2^fl/fl; LysMCre^+). 10 days post-graft, daily treatment with placebo or DSHN-OMe was initiated and subsequent tumor growth followed through time. […] (G) EMT6 metastatic lungs were assessed for Ki67 mRNA and (H) FOXP3 mRNA. (I) EMT6 metastatic lungs were assessed for CD8+ cytotoxic T cells (CD8+). […]

CD8+ T cell expansion = test: Suppressiveness of T cells expanded with treated BMDMs (secondary CD8+ expansion); type: cell-based, mouse; conditions: BMDMs pretreated with compound
Excerpt: FIG. 6A-6F. […] (A) DSHN-OMe has minimal effects on BMDM viability (N=4-6/group). (B) DSHN-OMe treated BMDMs reduce Treg expansion in a dose related manner, with an increased biological maximum compared to DSHN (data normalized to mean vehicle, which was set at 100%. Non-linear three parameter regression shown, N=4/point). […] Different letters denote P<0.05. […] The percentage of divided CD8+ T cells in the second round was quantified. (N=3-5/group, different letters indicating statistical significance, 1-way ANOVA followed by Tukey). […] Vehicle (DMSO) treated BMDMs are indicated on the right for comparison. (F) Cellular uptake of DSHN-OMe greatly exceeds that of DSHN though time. RAW264.7 cells were treated with 50 µM of vehicle (DMSO) or indicated compound for 4 h, 8 h or 24 h. Compound was washed off, cells were lysed and resulting DSHN and DSHN-OMe contents were assessed by LC-MS/MS. Note different scales on y-axes. For DSHN treated cells, no DSHN-OMe was detected (not shown). For DSHN-OMe treated cells, some DSHN was detected. ND signifies when compounds were not detected. (N=3/group. 4 h timepoint was run in an experiment independent of the 8 and 24 hr timepoints).
(§1) In order to better assess the potential cellular toxicity of DSHN-OMe, we treated BMDMs with increasing doses and measured their ability to reduce resazurin to resorufin (similar to the MTT viability assay).

BMDM viability = test: Resazurin cell viability assay in BMDMs; type: cell-based, mouse; conditions: increasing doses up to 100 μM
Method: as §1
Resazurin cell viability assay. 20,000 cells were seeded into 96 well f-bottom, black plates (Corning Costar) and cell viability was measured using 100 μL resazurin per well at 0.3 mg/mL (Acros Organics). The fluorescence signal was quantified by plate reader (560 nm excitation/590 nm emission) at 2-3 h.

Structure (SMILES)	Outgrowth of 4T1 metastatic lesions, combined with αPDL1 (4T1 metastatic lesions)	Outgrowth of established 4T1 metastatic lesions, single agent (4T1 metastatic lesions)	Suppressiveness of expanded T cells towards second set of naïve T cells (CD8+ expansion) (CD8+ T cell expansion)	BMDM viability (resazurin reduction) (BMDM viability)
CCN(CC)S(=O)(=O)c1cccc2cc(C(=O)O)c(O)cc12 [DSHN, reference compound]	reduced outgrowth even further than DSHN alone	slowed the growth of metastatic lesions	less suppressive	no significant difference was observed in viability up to 100 μM
CCN(CC)S(=O)(=O)c1cccc2cc(C(=O)OC)c(O)cc12 [DSHN-OMe, Methyl 5-(N,N-diethylsulfamoyl)-3-hydroxy-2-naphthoate]	did not significantly influence the effects of DSHN-OMe	significantly reduced the outgrowth of established 4T1 metastatic lesions	less suppressive	no significant difference was observed in viability up to 100 μM
